# System: DN rats
# Assay: type II diabetic nephropathy (DN) rat model (high-sugar high-fat diet + streptozocin)
# Format: in vivo, SD (Sprague Dawley) rats
# Conditions: for BUN / CREA / Glycated hemoglobin / Urinary protein / mALB (microalbumin in urine) / ICAM-1 / IL-1β / IL-6 / MDA / NF-κB / SOD / T-AOC / TGF-β1 / TNF-α / VCAM-1 / Glucose (GLU) / HDL-C / LDL-C / TC / TG / UA / Kidney coefficient: gavage, 6 weeks; for Urinary protein / mALB (microalbumin in urine): 6-hour urine; for ICAM-1 / IL-1β / IL-6 / MDA / NF-κB / SOD / T-AOC / TGF-β1 / TNF-α / VCAM-1: renal tissues; for Glucose (GLU) / HDL-C / LDL-C / TC / TG / UA: serum; for Kidney coefficient: weights of two kidneys/body weight
# Experimental: The solid dispersions are prepared through a solvent method, comprising steps of: respectively precisely weighing LM49, PVPK30 and tween80 with a weight ratio of 1:5:1, and A8, PVPK30 and tween80 with a weight ratio of 1:4:1; dissolving with appropriate absolute ethyl alcohol, continuously stirring, and uniformly mixing; placing on the water bath at 60° C., evaporating and removing the absolute ethyl alcohol, and obtaining a viscous material; placing in the freezer at −20° C., and freezing for 2 hours; taking out from the freezer, then placing in the vacuum drying oven, and drying for 24 hours; after becoming embrittlement, smashing and sieving with a sieve of 80 meshes, and then placing in the dryer for storage.
# The healthy adult male SD rats (having a weight of 180-220 g) are fed with the high-sugar and high-fat diet for 4 weeks; the rats are fasting overnight; and streptozocin (STZ) of 40 mg/kg is intraperitoneally injected into the rats. The rats of normal control group are injected with the sodium citrate buffer of same volume; 72 hours later, the rats are fasting for 12 hours. […] During the administration period, the successfully established model rats are still fed with the high-sugar and high-fat diet, while the rats of the normal control group are fed with the normal diet.
# After administration for 6 weeks, 6-hour urine of the rats is collected with the metabolism cage.
# The rats are fasting overnight and anesthetized intraperitoneally, then the abdominal aorta blood thereof is drawn for measuring the related indexes. The two kidneys of each rat are washed with the normal saline; weights of the kidneys are recorded; and the kidney coefficient (weights of two kidneys/body weight) is calculated. The renal tissues (comprising the glomerulus and renal tubules) at the same part of the left kidney are cut lengthwise and immersed in the 10% neutral formalin for pathomorphology analysis, and the other parts of the left kidney are used for biochemical index measurement; the right kidney is used for mechanism research and stored in the freezer at −80° C.
# After successfully establishing the model rats, expect the normal control group (ten rats), the remaining rats are randomly divided into eight groups, wherein each group has twelve rats. The eight groups are respectively the model group, the LM49 solid dispersion low-dose group (with the drug concentration of 3 mg/kg), the LM49 solid dispersion medium-dose group (with the drug concentration of 9 mg/kg), the LM49 solid dispersion high-dose group (with the drug concentration of 27 mg/kg), the A8 solid dispersion low-dose group (with the drug concentration of 3 mg/kg), the A8 solid dispersion medium-dose group (with the drug concentration of 9 mg/kg), the A8 solid dispersion high-dose group (with the drug concentration of 27 mg/kg), and the captopril control group (with the drug concentration of 15 mg/kg).
# Administration Way: By Gavage.
# The rats of the normal control group and the model group are administrated with the normal saline of 1.0 ml/100 g; the rats of the positive control group, the LM49 solid dispersion high-dose, medium-dose and low-dose groups and the A8 solid dispersion high-dose, medium-dose and low-dose groups are respectively administrated with the drugs of different concentrations, and the administration volume is 1.0 ml/100 g.
# The solid dispersions are dissolved by the normal saline; and the rats of the positive control group are administrated with the 0.5% CMC-Na (sodium carboxymethyl cellulose) suspension.
# The rats are administrated seven days a week, for totally six weeks.
# The IBM SPSS Statistics 20 software is used for data processing, and the data is represented in x±s. The one-way analysis of variance (ANOVA) is adopted for comparison among the groups. According to the homogeneity test results of variance, if the variance is equal, the LSD (least significant difference) test is adopted; if the variance is unequal, the Dunnett's T3 test is adopted. […]
smiles,measurement,setting,value
"O=C(c1cc(Br)ccc1O)c1cc(O)c(O)cc1Br [LM49, 2,5′-dibromo-4,5,2′-trihydroxyldiphenylmethanone]",BUN,"DN rats, high-dose 27 mg/kg",10.66 ± 2.52 mmol/L
same,CREA,"DN rats, high-dose 27 mg/kg",55.12 ± 4.05 µmol/L
same,Glycated hemoglobin,"DN rats, high-dose 27 mg/kg",8.10 ± 1.50%
same,Urinary protein,"DN rats, high-dose 27 mg/kg",2.82 ± 0.54^□□▴◯● mg/6 h
same,mALB (microalbumin in urine),"DN rats, high-dose 27 mg/kg",52.22 ± 7.46^□□▴▴ μg/6 h
same,ICAM-1,"DN rats, high-dose 27 mg/kg",282.88 ± 59.07 pg/mgprog
same,IL-1β,"DN rats, high-dose 27 mg/kg",121.69 ± 16.12 pg/mgprog
same,IL-6,"DN rats, high-dose 27 mg/kg",119.09 ± 11.51^□ pg/mgprog
same,MDA,"DN rats, high-dose 27 mg/kg",1.16 ± 0.19 nmol/mgprog
same,NF-κB,"DN rats, high-dose 27 mg/kg",215.39 ± 43.61^□□▴▴◯◯ pg/mgprog
same,SOD,"DN rats, high-dose 27 mg/kg",4.06 ± 0.78 U/mgprog
same,T-AOC,"DN rats, high-dose 27 mg/kg",1.37 ± 0.31 U/mgprog
same,TGF-β1,"DN rats, high-dose 27 mg/kg",30.58 ± 5.83^□□▴▴ pg/mgprot
same,TNF-α,"DN rats, high-dose 27 mg/kg",279.29 ± 41.89^□ pg/mgprog
same,VCAM-1,"DN rats, high-dose 27 mg/kg",26.85 ± 5.63 pg/mgprog
same,Glucose (GLU),"DN rats, high-dose 27 mg/kg",10.73 ± 2.89^□□▴◯ mmol/L
same,HDL-C,"DN rats, high-dose 27 mg/kg",1.17 ± 0.24 mmol/L
same,LDL-C,"DN rats, high-dose 27 mg/kg",1.61 ± 0.54^□□ mmol/L
same,TC,"DN rats, high-dose 27 mg/kg",3.00 ± 0.79^□□ mmol/L
same,TG,"DN rats, high-dose 27 mg/kg",0.54 ± 0.13^□□ mmol/L
same,UA,"DN rats, high-dose 27 mg/kg",29.41 ± 7.23^□□●● μmol/L
same,Kidney coefficient,"DN rats, high-dose 27 mg/kg",1.00 ± 0.09%
same,lesions of the renal tissues,"DN rats, kidney pathology (HE, Masson staining)",effectively reduce the lesions of the renal tissues
same,BUN,"DN rats, low-dose 3 mg/kg",11.59 ± 2.78 mmol/L
same,CREA,"DN rats, low-dose 3 mg/kg",54.11 ± 3.50 µmol/L
same,Glycated hemoglobin,"DN rats, low-dose 3 mg/kg",9.01 ± 0.61%
same,Urinary protein,"DN rats, low-dose 3 mg/kg",5.81 ± 1.42^□□ mg/6 h
same,mALB (microalbumin in urine),"DN rats, low-dose 3 mg/kg",143.47 ± 33.28^□□●● μg/6 h
same,ICAM-1,"DN rats, low-dose 3 mg/kg",384.02 ± 100.59 pg/mgprog
same,IL-1β,"DN rats, low-dose 3 mg/kg",158.77 ± 43.38 pg/mgprog
same,IL-6,"DN rats, low-dose 3 mg/kg",195.42 ± 2.34 pg/mgprog
same,MDA,"DN rats, low-dose 3 mg/kg",1.65 ± 0.25 nmol/mgprog
same,NF-κB,"DN rats, low-dose 3 mg/kg",2415.59 ± 515.30 pg/mgprog
same,SOD,"DN rats, low-dose 3 mg/kg",5.66 ± 1.87 U/mgprog
same,T-AOC,"DN rats, low-dose 3 mg/kg",1.52 ± 0.58 U/mgprog
same,TGF-β1,"DN rats, low-dose 3 mg/kg",100.46 ± 25.56 pg/mgprot
same,TNF-α,"DN rats, low-dose 3 mg/kg",573.35 ± 150.75 pg/mgprog
same,VCAM-1,"DN rats, low-dose 3 mg/kg",39.34 ± 10.56 pg/mgprog
same,Glucose (GLU),"DN rats, low-dose 3 mg/kg",19.94 ± 6.09^□□ mmol/L
same,HDL-C,"DN rats, low-dose 3 mg/kg",1.27 ± 0.12 mmol/L
same,LDL-C,"DN rats, low-dose 3 mg/kg",1.90 ± 0.54^□□ mmol/L
same,TC,"DN rats, low-dose 3 mg/kg",3.28 ± 0.59^□□ mmol/L
same,TG,"DN rats, low-dose 3 mg/kg",0.38 ± 0.10^□□ mmol/L
same,UA,"DN rats, low-dose 3 mg/kg",26.01 ± 6.54^□□●● μmol/L
same,Kidney coefficient,"DN rats, low-dose 3 mg/kg",1.08 ± 0.09%
same,BUN,"DN rats, medium-dose 9 mg/kg",10.97 ± 3.01 mmol/L
same,CREA,"DN rats, medium-dose 9 mg/kg",55.25 ± 1.01 µmol/L
same,Glycated hemoglobin,"DN rats, medium-dose 9 mg/kg",8.59 ± 0.85%
same,Urinary protein,"DN rats, medium-dose 9 mg/kg",5.29 ± 0.61^□□ mg/6 h
same,mALB (microalbumin in urine),"DN rats, medium-dose 9 mg/kg",125.38 ± 23.67^□□● μg/6 h
same,ICAM-1,"DN rats, medium-dose 9 mg/kg",334.79 ± 55.46 pg/mgprog
same,IL-1β,"DN rats, medium-dose 9 mg/kg",146.20 ± 16.12 pg/mgprog
same,IL-6,"DN rats, medium-dose 9 mg/kg",168.44 ± 30.33 pg/mgprog
same,MDA,"DN rats, medium-dose 9 mg/kg",1.92 ± 0.34 nmol/mgprog
same,NF-κB,"DN rats, medium-dose 9 mg/kg",1017.81 ± 239.12^□▴●● pg/mgprog
same,SOD,"DN rats, medium-dose 9 mg/kg",5.33 ± 1.01 U/mgprog
same,T-AOC,"DN rats, medium-dose 9 mg/kg",1.93 ± 0.43 U/mgprog
same,TGF-β1,"DN rats, medium-dose 9 mg/kg",53.60 ± 11.60^□● pg/mgprot
same,TNF-α,"DN rats, medium-dose 9 mg/kg",436.04 ± 84.54 pg/mgprog
same,VCAM-1,"DN rats, medium-dose 9 mg/kg",34.76 ± 5.04 pg/mgprog
same,Glucose (GLU),"DN rats, medium-dose 9 mg/kg",18.58 ± 2.71^□□ mmol/L
same,HDL-C,"DN rats, medium-dose 9 mg/kg",1.16 ± 0.21 mmol/L
same,LDL-C,"DN rats, medium-dose 9 mg/kg",1.51 ± 0.48^□□ mmol/L
same,TC,"DN rats, medium-dose 9 mg/kg",2.71 ± 0.49^□□ mmol/L
same,TG,"DN rats, medium-dose 9 mg/kg",0.30 ± 0.11^□□ mmol/L
same,UA,"DN rats, medium-dose 9 mg/kg",25.63 ± 5.83^□□●● μmol/L
same,Kidney coefficient,"DN rats, medium-dose 9 mg/kg",1.09 ± 0.14%
same,effect on resisting the DN of rats,overall summary in words,obvious effect on resisting the DN of rats

# From patent US20190133968A1, “Applications of benzophenones in preparation of drug” (SHANXI MEDICAL UNIVERSITY, priority 2016, published 2019)
